Reference: patent publication US11324787B2, “Analytical methods and arrays for use in the same” (SENZAGEN AB, priority 2017, dated 2022)
“And” between values parts separate entries of the source, which are not always exact repeats. Identical values can stand only once. “Also recorded” adds a separate entry of the source. Counter-ions that a name gives are not always drawn. Like-named read-outs stand apart in the source and are kept apart here.

Columns and labels:
[1] = tested on: myeloid cell line derived from MUTZ-3; experiment: Cytotoxicity / viability by flow cytometry (propidium iodide), 24 hours exposure; settings: yes/no; MUTZ-3 derived cells
[2] = cited from earlier work; for binary class: sens / non-sens; for true CLP: test set
[3] = cited from earlier work; for binary class (HP*): based on human potency [41] where available, otherwise according to CLP; for HP: human potency, chemicals of random forest training and test set; for Human potency [41]: test set
[4] = tested on: myeloid cell line derived from MUTZ-3; experiment: GARD binary classification (SVM on GARD prediction signature, 200 transcripts); settings: for GARD binary prediction: SVM, median calibrated decision value of replicates >0 = sensitizer
[5] = tested on: myeloid cell line derived from MUTZ-3; experiment: GARD random forest model predicting CLP categories (52 transcripts, Example A); settings: test set; for GARD predicted CLP: majority voting across replicates; for predicted CLP: separate replicates
[6] = CLP annotation of 37 novel chemicals
[7] = Table 9, chemicals training set
[8] = chemicals of random forest training and test set

Compound	cytotox [1]	CLP [2, 6]	CLP [2, 7]	CLP [2, 8]	binary class [2, 8]	binary class (HP*) [3]	HP [3]	GARD binary prediction [4]	CLP ([2]; Table 10, chemicals test set 1)	true CLP ([2]; per replicate line)	true CLP [2]	SVM DV ([4]; Table 8 chemical list, GARD SVM decision value)	GARD predicted CLP [5]	predicted CLP [5]	Human potency [41] [3]	GARD binary classification relative to cut-off defined by benchmark samples ([4]; misclassified sensitizing chemicals)
O=C(O)C(O)C(O)C(=O)O (stereo not drawn) [tartaric acid]	no	–	–	–	–	–	–	–	–	–	–	–	–	–	–	–
Oc1c(Cl)c(Cl)c(Cl)c(Cl)c1Cl [pentachlorophenol]	no	1B	1B	1B	sens	NS (5-6 = NS)	5	–	–	–	–	–	–	–	–	–
OCCNCCO [diethanolamine]	no	1B	1B	1B	sens	NS (5-6 = NS)	5	–	–	–	–	–	–	–	–	–
CCCCCCOC(=O)c1ccccc1O [hexyl salicylate]	yes	1A	1A	1A	sens	S (HP 1-4 = S)	4	S	–	–	–	–	–	–	–	–
CCCCCCCCCCCCCC(=O)OC(C)C [isopropyl myristate]	no	1B	1B	1B	sens	NS (5-6 = NS)	5	–	–	–	–	–	–	–	–	–
CCOC(=O)c1ccccc1C(=O)OCC [diethyl phthalate]	–	–	–	no cat	non-sens	–	6	–	no cat	no cat	no cat	−2.15	no cat	no cat	–	–
CC(C)C1=CC2=CC[C@@H]3[C@](C)(CCC[C@@]3(C)C(=O)O)[C@H]2CC1 [abietic acid]	no	1B	1B	1B	sens	S (HP 1-4 = S)	3	S	–	–	–	–	–	–	–	–
OCc1ccccc1 [benzyl alcohol]	no	–	no cat	no cat	non-sens	NS (5-6 = NS)	–	–	–	–	–	–	–	–	–	–
CCCCBr [1-brombutane, 1-bromobutane]	–	–	–	no cat	non-sens	NS (5-6 = NS)	–	–	no cat	no cat	no cat	–	no cat	no cat	–	–
CC(C)(O)CCCC1=CCC(C=O)CC1 (stereo not drawn) [lyral]	yes	1B	–	1B	sens	S (HP 1-4 = S)	2	S	1B	1B	1B	–	1A	1A (2×) and 1B	2	–
CCOC(=O)/C=C\C(=O)OCC [diethyl maleate]	–	–	–	1B	sens	–	2	–	1B	1B	1B	–	1A	1A	2	–
CCOC(=O)c1ccc(N)cc1 [benzocaine]	no	1B	–	1B	sens	S (HP 1-4 = S)	4	–	–	–	–	–	–	–	–	close to the cut-off
CCCCCC#CC(=O)OC [methyl heptine carbonate]	yes	1A	1A	1A	sens	S (HP 1-4 = S)	2	S	–	–	–	–	–	–	–	–
O=C1C=CC(=O)C=C1 [p-benzochinone, p-benzoquinone]	yes	–	–	–	–	–	–	–	–	–	–	–	1A	1A	–	–
dextran	no	–	no cat	no cat	non-sens	NS (5-6 = NS)	6	–	–	–	–	–	–	–	–	–
Cc1cccc(O)c1O [3-methylcatechol, 3-Methylcatechol]	yes	1A	1A	1A	sens	S (HP 1-4 = S)	–	S	–	–	–	–	–	–	–	–
CC(C)=CCCC(C)CCO (stereo not drawn) [citronellol]	no	1B	1B	1B	sens	NS (5-6 = NS)	5	S	–	–	–	–	–	–	–	–
Clc1nc(Cl)nc(Cl)n1 [cyanuric chloride]	yes	1A	–	1A	sens	S (HP 1-4 = S)	–	–	1A	1A	1A	–	no cat; also recorded: no category	no cat (2×) and 1B	–	–
O=C(O)c1ccccc1 [benzoic acid]	–	–	–	no cat	non-sens	NS (5-6 = NS)	–	–	no cat	no cat	no cat	–	no cat	no cat	–	–
CN(C)CCCN1c2ccccc2Sc2ccc(Cl)cc21 [chlorpromazine]	yes	1A	1A	1A	sens	S (HP 1-4 = S)	3	S	–	–	–	–	–	–	–	–
CC=Cc1ccc(OC)cc1 [anethole]	–	–	–	–	–	NS (5-6 = NS)	5	–	–	–	–	–	1B	1B	5	–
O=C(O)CC(O)(CC(=O)O)C(=O)O [citric acid]	no	–	–	–	–	–	–	–	–	–	–	–	–	–	–	–
C=CC(C)(O)CCC=C(C)C (stereo not drawn) [linalool]	no	1B	–	1B	sens	S (HP 1-4 = S)	4	–	1B	1B	1B	–	1B	no cat and 1B (2×)	4	–
CC(C)=CCCC(C)=CC=O [citral]	yes	1B	1B	1B	sens	S (HP 1-4 = S)	3	S	–	–	–	–	–	–	–	–
O=C(OCc1ccccc1)c1ccccc1 [benzyl benzoate]	yes	–	–	–	–	–	–	S	–	–	–	–	1B	1B	–	–
